# According to ChEMBL document CHEMBL3046791, “Design and synthesis of 2-quinolones as antioxidants and antimicrobials: a rational approach” (Med Chem Res, 2010):
# Tests used:
# [1] = Partition coefficient, log P of the compound; assay type: physicochemical; conditions: octanol/water
# Staphylococcus aureus [2] = assay: Antibacterial activity against Staphylococcus aureus at 500 ug/0.1 mL after 24 hr by agar diffusion method; assay type: functional
# Bacillus subtilis [3] = assay: Antibacterial activity against Bacillus subtilis at 500 ug/0.1 mL after 24 hr by agar diffusion method; assay type: functional
# Escherichia coli [4] = assay: Antibacterial activity against Escherichia coli at 500 ug/0.1 mL after 24 hr by agar diffusion method; assay type: functional
# Pseudomonas aeruginosa [5] = assay: Antibacterial activity against Pseudomonas aeruginosa at 500 ug/0.1 mL after 24 hr by agar diffusion method; assay type: functional
# Pseudomonas aeruginosa [6] = assay: Antibacterial activity against Pseudomonas aeruginosa at 10 ug/0.1 mL after 24 hr by agar diffusion method; assay type: functional
# Staphylococcus aureus [7] = assay: Antibacterial activity against Staphylococcus aureus at 10 ug/0.1 mL after 24 hr by agar diffusion method; assay type: functional
# Bacillus subtilis [8] = assay: Antibacterial activity against Bacillus subtilis at 10 ug/0.1 mL after 24 hr by agar diffusion method; assay type: functional
# Escherichia coli [9] = assay: Antibacterial activity against Escherichia coli at 10 ug/0.1 mL after 24 hr by agar diffusion method; assay type: functional
Structure (SMILES),logP [1],inhibition zone (IZ) (Staphylococcus aureus [2]) [mm],inhibition zone (IZ) (Bacillus subtilis [3]) [mm],inhibition zone (IZ) (Escherichia coli [4]) [mm],also measured
CC(=O)Nc1ccc2c(C)cc(=O)[nH]c2c1,0.995,11,13,–,–
Cc1cc(=O)[nH]c2cc(NC(=O)c3ccc(Cl)cc3Cl)ccc12,1.83,–,–,9,–
Cc1cc(=O)[nH]c2cc(NC(=O)c3ccc(F)cc3)ccc12,1.61,11,12,–,–
Cc1cc(=O)[nH]c2cc(NC(=O)c3c(Br)cccc3Br)ccc12,1.75,12,12,–,–
Cc1cc(=O)[nH]c2cc(NC(=O)c3ccc([N+](=O)[O-])cc3)ccc12,1.63,–,–,11,inhibition zone (IZ) (Pseudomonas aeruginosa [5]): 9 mm
Cc1cc(=O)[nH]c2cc(NC(=O)c3c([N+](=O)[O-])cccc3[N+](=O)[O-])ccc12,1.82,–,12.5,13,inhibition zone (IZ) (Pseudomonas aeruginosa [5]): 10 mm
Cc1ccccc1C(=O)Nc1ccc2c(C)cc(=O)[nH]c2c1,1.71,10,12,–,–
Cc1ccc(C(=O)Nc2ccc3c(C)cc(=O)[nH]c3c2)cc1,1.67,–,–,13,inhibition zone (IZ) (Pseudomonas aeruginosa [5]): 10 mm
COc1ccc(C(=O)Nc2ccc3c(C)cc(=O)[nH]c3c2)cc1OC,1.46,16,13,15,–
Cc1cc(=O)[nH]c2cc(NC(=O)c3cccc4ccccc34)ccc12,1.72,–,13,11,–
Cc1cc(=O)[nH]c2cc(NC(=O)/C=C/c3ccccc3)ccc12,1.69,–,11,12,–
Cc1cc(=O)[nH]c2cc(NC(=O)c3ccccc3)ccc12,1.66,–,12,–,inhibition zone (IZ) (Pseudomonas aeruginosa [5]): 11 mm
Cc1cc(=O)[nH]c2cc(NC(=O)c3ccccc3Cl)ccc12,1.55,–,10.5,–,–
Cc1cc(=O)[nH]c2cc(NC(=O)c3cccc(Cl)c3)ccc12,1.69,–,–,–,–
Cc1cc(=O)[nH]c2cc(NC(=O)c3ccc(Cl)cc3)ccc12,1.69,–,–,9,–
Cc1cc(O)nc2cc(N)ccc12,0.793,11,10,10,inhibition zone (IZ) (Pseudomonas aeruginosa [5]): 11 mm
CC1(C)S[C@@H]2[C@H](NC(=O)[C@H](N)c3ccc(O)cc3)C(=O)N2[C@H]1C(=O)O [AMOXICILLIN],–,–,–,–,inhibition zone (IZ) (Pseudomonas aeruginosa [6]): 26 mm; inhibition zone (IZ) (Staphylococcus aureus [7]): 30 mm; inhibition zone (IZ) (Bacillus subtilis [8]): 34 mm; inhibition zone (IZ) (Escherichia coli [9]): 23 mm
